Paper PMC11799997 (ACS Omega, 2025)

Tests used:
[1] = test system: renal brush border membrane vesicles (RBBMVs); assay: Enzyme-mediated cleavage assay with RBBMVs; format: in vitro ADME, rat; details: 10 mg/mL RBBMVs, 37 °C, TLC; for release of [64Cu]Cu-cyclam-G upon incubation with RBBMVs: 10 min–24 h; for release of radiometabolite-X (% of the radioactivity): 24 h
[2] = Urinary radiometabolite assay in normal mice; format: in vivo, mouse; details: for urinary radioactivity with tR consistent with [64Cu]Cu-cyclam-G: pilot, 13.3 MBq/12.4 nmol i.v., RP-HPLC
[3] = Ex vivo biodistribution study in normal mice; parameters: species or system mouse; details: 3 to 24 h p.i.
U87MG tumor-bearing mice = assay: PET imaging of U87MG tumor-bearing mice; format: in vivo, mouse; details: for rate of reduction in renal radioactivity level (PET): from 1 to 24 h p.i.
[4] = Whole-body dynamic PET in normal mice; details: for RRL relative to [64Cu]Cu-cyclam-RaftRGD / renal radioactivity level (RRL): 57.5 min p.i.; for renal radioactivity level (RRL) / radioactivity in the bladder: 2.92–4.26 MBq/0.3 nmol i.v.; for radioactivity in the bladder: by 1 h p.i.
[5] = test system: renal brush border enzymes (RBBMVs); assay: Enzyme inhibition study of RBBMV-mediated cleavage of the GFK linkage; format: biochemical, rat; details: 1 mM inhibitor; for inhibition of release of [64Cu]Cu-cyclam-G from [64Cu]Cu-cyclam-GFK(Bz) / inhibition of release of radiometabolite-X from [64Cu]Cu-cyclam-GFK(Bz): RBBMVs 10 mg/mL, 37 °C, 5 or 24 h, TLC; for inhibition of release of [64Cu]Cu-cyclam-G from [64Cu]Cu-cyclam-GFK(Bz) (pilot): RBBMVs 3 mg/mL, 37 °C overnight, RP-HPLC
[6] = Pilot dynamic PET imaging of [64Cu]Cu-cyclam-G in normal mice

| Compound | inhibition of release of [64Cu]Cu-cyclam-G from [64Cu]Cu-cyclam-GFK(Bz) [5] | inhibition of release of radiometabolite-X from [64Cu]Cu-cyclam-GFK(Bz) [5] | release of [64Cu]Cu-cyclam-G upon incubation with RBBMVs [1] | release of radiometabolite-X (% of the radioactivity) [1] [%] | urine radioactivity fraction as intact compound ([2]; urine 0–6 h p.i., TLC) | reduction of kidney radioactivity level [3] [%] | reduction of liver radioactivity level [3] [%] | rate of reduction in renal radioactivity level (PET) (U87MG tumor-bearing mice) [%] | further results |
| --- | --- | --- | --- | --- | --- | --- | --- | --- | --- |
| O=C(CN1CCCNCCNCCCNCC1)NCC(=O)N[C@@H](Cc1ccccc1)C(=O)N[C@@H](CCCCNC(=O)c1ccccc1)C(=O)O [[^64Cu]Cu-cyclam-GFK(Bz), [^64Cu]Cu-cyclam-GFK(benzoyl [Bz])-OH, metal not drawn] | – | – | released the expected fragment | 43.7 | 67.6 ± 3.4% | – | – | – | urinary radioactivity with tR consistent with [64Cu]Cu-cyclam-G ([2]; mouse urine 10 min p.i.): 5.9%; urinary radioactivity with tR consistent with [64Cu]Cu-cyclam-G ([2]; mouse urine 2 h p.i.): 13.8%; urine radioactivity fraction as [64Cu]Cu-cyclam-G ([2]; urine 0–6 h p.i., TLC): 27.2 ± 2.5% |
| C[C@@H]1NC(=O)[C@H](CCCCNC(=O)CO/N=C/C(=O)NCCCC[C@@H]2NC(=O)[C@@H](Cc3ccccc3)NC(=O)[C@H](CC(=O)O)NC(=O)CNC(=O)[C@H](CCCNC(=N)N)NC2=O)NC(=O)CNC(=O)[C@@H]2CCCN2C(=O)[C@H](CCCCNC(=O)CO/N=C/C(=O)NCCCC[C@@H]2NC(=O)[C@@H](Cc3ccccc3)NC(=O)[C@H](CC(=O)O)NC(=O)CNC(=O)[C@H](CCCNC(=N)N)NC2=O)NC(=O)[C@H](CCCCNC(=O)CCNC(=O)CCNC(=O)CCNC(=O)[C@H](CCCCN)NC(=O)[C@H](Cc2ccccc2)NC(=O)CNC(=O)CN2CCCNCCNCCCNCC2)NC(=O)[C@H](CCCCNC(=O)CO/N=C/C(=O)NCCCC[C@@H]2NC(=O)[C@@H](Cc3ccccc3)NC(=O)[C@H](CC(=O)O)NC(=O)CNC(=O)[C@H](CCCNC(=N)N)NC2=O)NC(=O)CNC(=O)[C@@H]2CCCN2C(=O)[C@H](CCCCNC(=O)CO/N=C/C(=O)NCCCC[C@@H]2NC(=O)[C@@H](Cc3ccccc3)NC(=O)[C@H](CC(=O)O)NC(=O)CNC(=O)[C@H](CCCNC(=N)N)NC2=O)NC1=O [[^64Cu]Cu-cyclam-GFK(βA)3-RaftRGD, metal not drawn] | – | – | failed to release | 22.9 | much lower and poorly defined for quantification | 74.4 | 34 | 75.6 ± 1.8 | urine radioactivity fraction as radiometabolite-X ([64Cu]Cu-cyclam-GF) ([2]; urine 0–6 h p.i., TLC): 69.1 ± 4.5%; tumor uptake (PET) (U87MG tumor-bearing mice; U87MG tumor, 1–24 h p.i.): significantly higher than those of the GFK compound; RRL relative to [64Cu]Cu-cyclam-RaftRGD [4]: 2.57 fold |
| C[C@@H]1NC(=O)[C@H](CCCCNC(=O)CO/N=C/C(=O)NCCCC[C@@H]2NC(=O)[C@@H](Cc3ccccc3)NC(=O)[C@H](CC(=O)O)NC(=O)CNC(=O)[C@H](CCCNC(=N)N)NC2=O)NC(=O)CNC(=O)[C@@H]2CCCN2C(=O)[C@H](CCCCNC(=O)CO/N=C/C(=O)NCCCC[C@@H]2NC(=O)[C@@H](Cc3ccccc3)NC(=O)[C@H](CC(=O)O)NC(=O)CNC(=O)[C@H](CCCNC(=N)N)NC2=O)NC(=O)[C@H](CCCCNC(=O)[C@H](CCCCN)NC(=O)[C@H](Cc2ccccc2)NC(=O)CNC(=O)CN2CCCNCCNCCCNCC2)NC(=O)[C@H](CCCCNC(=O)CO/N=C/C(=O)NCCCC[C@@H]2NC(=O)[C@@H](Cc3ccccc3)NC(=O)[C@H](CC(=O)O)NC(=O)CNC(=O)[C@H](CCCNC(=N)N)NC2=O)NC(=O)CNC(=O)[C@@H]2CCCN2C(=O)[C@H](CCCCNC(=O)CO/N=C/C(=O)NCCCC[C@@H]2NC(=O)[C@@H](Cc3ccccc3)NC(=O)[C@H](CC(=O)O)NC(=O)CNC(=O)[C@H](CCCNC(=N)N)NC2=O)NC1=O [[^64Cu]Cu-cyclam-GFK-RaftRGD, metal not drawn] | – | – | failed to release | 18.2 | 27.7 ± 2.4% | 61.1 | 28.0 | 73.0 ± 2.3 | urine radioactivity fraction as radiometabolite-X ([64Cu]Cu-cyclam-GF) ([2]; urine 0–6 h p.i., TLC): 56.9 ± 2.0%; RRL relative to [64Cu]Cu-cyclam-RaftRGD [4]: 2.98 fold |
| C[C@@H]1NC(=O)[C@H](CCCCNC(=O)CO/N=C/C(=O)NCCCC[C@@H]2NC(=O)[C@@H](Cc3ccccc3)NC(=O)[C@H](CC(=O)O)NC(=O)CNC(=O)[C@H](CCCNC(=N)N)NC2=O)NC(=O)CNC(=O)[C@@H]2CCCN2C(=O)[C@H](CCCCNC(=O)CO/N=C/C(=O)NCCCC[C@@H]2NC(=O)[C@@H](Cc3ccccc3)NC(=O)[C@H](CC(=O)O)NC(=O)CNC(=O)[C@H](CCCNC(=N)N)NC2=O)NC(=O)[C@H](CCCCNC(=O)CN2CCCNCCNCCCNCC2)NC(=O)[C@H](CCCCNC(=O)CO/N=C/C(=O)NCCCC[C@@H]2NC(=O)[C@@H](Cc3ccccc3)NC(=O)[C@H](CC(=O)O)NC(=O)CNC(=O)[C@H](CCCNC(=N)N)NC2=O)NC(=O)CNC(=O)[C@@H]2CCCN2C(=O)[C@H](CCCCNC(=O)CO/N=C/C(=O)NCCCC[C@@H]2NC(=O)[C@@H](Cc3ccccc3)NC(=O)[C@H](CC(=O)O)NC(=O)CNC(=O)[C@H](CCCNC(=N)N)NC2=O)NC1=O [[^64Cu]Cu-cyclam-RaftRGD, [^64Cu]Cu-cyclam-RAFT-c(-RGDfK-)4, metal not drawn] | – | – | – | – | – | 22.8 | 27.0 | 43.0 ± 4.5 | – |
| [^64Cu]Cu-cyclam-Gly-OH | – | – | – | – | – | – | – | – | 0–6 h urinary radioactivity levels ([2]; normal mice, 7.4 MBq i.v., group values): 34.7 to 50.9 %ID; renal radioactivity level (RRL) [4]: 1.14 ± 0.15 %ID/g; radioactivity in the bladder [4]: > 70 %ID; reduction of renal uptake from peak ([6]; 1.5 to 57.5 min p.i.): 96.7%; renal uptake peak ([6]; 1.5 min p.i., ~7.4 MBq/2 nmol i.v.): 20.3 ± 2.9 %ID/g; renal uptake ([6]; 57.5 min p.i., ~7.4 MBq/2 nmol i.v.): 0.68 ± 0.02 %ID/g; ID excreted in urine ([6]; within 60 min after injection): more than 70 % of ID |
| [^64Cu]Cu-cyclam-Gly-Phe-OH [[^64Cu]Cu-cyclam-GF] | – | – | – | – | – | – | – | – | renal radioactivity level (RRL) [4]: 1.50 ± 0.81 %ID/g; radioactivity in the bladder [4]: > 70 %ID |

Further lines, with some results ahead:

| inhibition of release of [64Cu]Cu-cyclam-G from [64Cu]Cu-cyclam-GFK(Bz) [5] | inhibition of release of radiometabolite-X from [64Cu]Cu-cyclam-GFK(Bz) [5] | Compound | release of [64Cu]Cu-cyclam-G upon incubation with RBBMVs [1] | release of radiometabolite-X (% of the radioactivity) [1] [%] | urine radioactivity fraction as intact compound ([2]; urine 0–6 h p.i., TLC) | reduction of kidney radioactivity level [3] [%] | reduction of liver radioactivity level [3] [%] | rate of reduction in renal radioactivity level (PET) (U87MG tumor-bearing mice) [%] | further results |
| --- | --- | --- | --- | --- | --- | --- | --- | --- | --- |
| partially inhibited | partially inhibited | C[C@H](CS)C(=O)N1CCC[C@H]1C(=O)O [captopril] | – | – | – | – | – | – | – |
| not inhibited | not inhibited | CC1(C)C[C@@H]1C(=O)N/C(=C\CCCCSC[C@H](N)C(=O)O)C(=O)O [cilastatin] | – | – | – | – | – | – | inhibition of release of [64Cu]Cu-cyclam-G from [64Cu]Cu-cyclam-GFK(Bz) (pilot) [5]: remained unaffected |
| not inhibited | partially inhibited | NC(N)=NCCSCC(CS)C(=O)O (stereo not drawn) [mergetpa] | – | – | – | – | – | – | – |
| nearly completely inhibited | barely inhibited | CC(C)C[C@H](NP(=O)(O)O[C@@H]1O[C@@H](C)[C@H](O)[C@@H](O)[C@H]1O)C(=O)N[C@@H](Cc1c[nH]c2ccccc12)C(=O)O [phosphoramidon] | – | – | – | – | – | – | inhibition of release of [64Cu]Cu-cyclam-G from [64Cu]Cu-cyclam-GFK(Bz) (pilot) [5]: almost completely inhibited |
